Measurements taken from ChEMBL document CHEMBL4765401, “Synthesis, and biological evaluation of 3,6-diaryl-[1,2,4]triazolo[4,3-a]pyridine analogues as new potent tubulin polymerization inhibitors” (Eur J Med Chem, 2020).
pIC50: −log10 of the molar value. Active and inactive are the calls of the source. The calls are words filed in the database; no cut-off is given here.

Assays:
HeLa [1] = assay: Antiproliferative activity against human HeLa cells measured after 48 hrs by MTT assay; format: functional, cell-based
MCF7 = assay: Antiproliferative activity against human MCF7 cells measured after 48 hrs by MTT assay; format: functional, cell-based; settings: MCF7, 48 h
HEK293 = assay: Cytotoxicity against HEK293 cells measured after 48 hrs by MTT assay; format: cell-based; settings: Homo sapiens, HEK293, 48 h
[2] = Inhibition of pig brain tubulin polymerization measured at 1 min interval for 20 mins by spectrophotometric method; set-up: species or system Sus scrofa
A549 = assay: Antiproliferative activity against human A549 cells measured after 48 hrs by MTT assay; format: functional, cell-based; settings: A549, 48 h
T47D = assay: Antiproliferative activity against human T47D cells measured after 48 hrs by MTT assay; format: functional, cell-based
Sus scrofa = organism: Sus scrofa; assay: Inhibition of pig brain tubulin polymerization at 10 uM measured at 1 min interval for 20 mins by spectrophotometric method relative to control
HeLa [3] = assay: Induction of microtubule disruption in human HeLa cells at 12 nM measured after 6 hrs by DAPI staining based immunofluorescence microscopy; format: cell-based

Row | Compound | pIC50 (HeLa [1]) | pIC50 (MCF7) | pIC50 (HEK293) | inhibition (Sus scrofa) [%] | other results
1 | COc1ccc(-c2ccc3nnc(-c4cc(OC)c(OC)c(OC)c4)n3c2)c(O)c1 | < 4.60 | – | – | – | –
2 | COc1cc(-c2nnc3ccc(-c4ccc(C)cc4)cn23)cc(OC)c1OC | 7.47 | < 4.00 | < 4.00 | 77 | pIC50 [2]: 5.39; pIC50 (A549): 5.20; pIC50 (T47D): < 4.00
3 | COc1ccc(/C=C\c2cc(OC)c(OC)c(OC)c2)cc1O [COMBRETASTATIN A4] | 8.33 | 6.77 | – | 79 | Activity (HeLa [3]): Active
4 | COc1ccccc1-c1ccc2nnc(-c3cc(OC)c(OC)c(OC)c3)n2c1 | 7.08 | 4.86 | < 4.00 | 16 | pIC50 (A549): 5.03; pIC50 (T47D): 4.50
5 | COc1cc(-c2nnc3ccc(-c4ccc(O)cc4)cn23)cc(OC)c1OC | < 4.60 | – | – | – | –
6 | COc1ccc(-c2nnc3ccc(-c4cc(OC)c(OC)c(OC)c4)cn23)cc1O | 4.66 | – | – | – | –
7 | COc1ccc(-c2ccc3nnc(-c4cc(OC)c(OC)c(OC)c4)n3c2)cc1O | 7.35 | < 4.00 | < 4.00 | 14 | pIC50 (A549): 4.75; pIC50 (T47D): < 4.00
8 | COc1cc(C2=NC3=NC(C)=C(C(C)=O)C(c4ccc([N+](=O)[O-])cc4)N3N2)cc(OC)c1OC (stereo unspecified) | 6.12 | – | 4.52 | – | –
9 | COc1ccc(-c2ccc3nnc(-c4cc(OC)c(OC)c(OC)c4)n3c2)cc1 | 6.71 | – | – | – | –
10 | COc1cccc(-c2ccc3nnc(-c4cc(OC)c(OC)c(OC)c4)n3c2)c1 | 6.35 | – | – | – | –
11 | COc1cc(F)ccc1-c1ccc2nnc(-c3cc(OC)c(OC)c(OC)c3)n2c1 | 6.82 | – | – | – | –
12 | COc1ccc(F)cc1-c1ccc2nnc(-c3cc(OC)c(OC)c(OC)c3)n2c1 | 6.19 | – | – | – | –
13 | COc1cc(-c2nnc3ccc(-c4ccc(C(F)(F)F)cc4)cn23)cc(OC)c1OC | < 4.60 | – | – | – | –
14 | COc1ccc(-c2ccc3nnc(-c4cc(OC)c(OC)c(OC)c4)n3c2)cc1[N+](=O)[O-] | 7.21 | 4.12 | < 4.00 | 36 | pIC50 (A549): 4.23; pIC50 (T47D): < 4.00
15 | COc1cc(-c2nnc3ccc(-c4ccc(Cl)cc4)cn23)cc(OC)c1OC | 7.19 | – | < 4.00 | – | –
